The values below come from publication PMC9482650, “Quantitative fragmentomics allow affinity mapping of interactomes” (Nature Communications, 2022).

Ends that are not written are not given here.

Assay in all cases: Holdup assay
Common to all, as to format: binding

The target of experiment [1] is MAGI2_6 PDZ (Homo sapiens, UniProt Q86UL8). The settings on record: composite holdup affinity; 0.00=below quantification threshold; read-out: COMP pKd (converted).
The target of experiment [2] is Inadl_3 PDZ (Homo sapiens, UniProt Q8NI35). The settings on record: composite holdup affinity; 0.00=below quantification threshold; read-out: COMP pKd (converted).
Experiment [3] has as its target IL16_1 PDZ (Homo sapiens, UniProt Q14005). The settings on record: composite holdup affinity; 0.00=below quantification threshold; read-out: COMP pKd (converted).
The target in experiment [4] is LIN7B PDZ (Homo sapiens, UniProt Q9HAP6). The settings on record: composite holdup affinity; 0.00=below quantification threshold; read-out: COMP pKd (converted).
The target in experiment [5] is GRIP2_4 PDZ (Homo sapiens, UniProt Q9C0E4). The settings on record: composite holdup affinity; 0.00=below quantification threshold; read-out: COMP pKd (converted).
Experiment [6] concerns the target LIMK2 PDZ (Homo sapiens, UniProt P53671). The settings on record: composite holdup affinity; 0.00=below quantification threshold; read-out: COMP pKd (converted).
The target of experiment [7] is GRIP2_3 PDZ (Homo sapiens, UniProt Q9C0E4). The settings on record: composite holdup affinity; 0.00=below quantification threshold; read-out: COMP pKd (converted).
In experiment [8] the target is GRIP1_1 PDZ (Homo sapiens, UniProt Q9Y3R0). The settings on record: sheet PPI_convert; read-out: affinity to PDZ GRIP1_1 (converted).
In experiment [9] the target is MAGI1_5 PDZ (Homo sapiens, UniProt Q96QZ7). The settings on record: sheet PPI_convert; read-out: affinity to PDZ MAGI1_5 (converted).
Experiment [10] concerns the target MAGIX PDZ (Homo sapiens, UniProt Q9H6Y5). The settings on record: sheet PPI_convert; read-out: affinity to PDZ MAGIX (converted). The text has this: Supplement 41467_2022_33018_MOESM4_ESM.xlsx, sheet "PPI_convert" | column: MAGIX
Experiment [11] deals with PDZRN4_2 PDZ (Homo sapiens, UniProt Q6ZMN7). The settings on record: sheet PPI_convert; read-out: affinity to PDZ PDZRN4_2 (converted).
Experiment [12] concerns the target Inadl_5 PDZ (Homo sapiens, UniProt Q8NI35). The settings on record: composite holdup affinity; 0.00=below quantification threshold; read-out: COMP pKd (converted).
Experiment [13] has as its target CARD14 PDZ (Homo sapiens, UniProt Q9BXL6). The settings on record: sheet PPI_convert; read-out: affinity to PDZ CARD14 (converted).
The target in experiment [14] is DLG5_2 PDZ (Homo sapiens, UniProt Q8TDM6). The settings on record: sheet PPI_convert; read-out: affinity to PDZ DLG5_2 (converted).
Experiment [15] has as its target DVL1 PDZ (Homo sapiens, UniProt O14640). The settings on record: sheet PPI_convert; read-out: affinity to PDZ DVL1 (converted).
Experiment [16] has as its target DVL2 PDZ (Homo sapiens, UniProt O14641). The settings on record: sheet PPI_convert; read-out: affinity to PDZ DVL2 (converted).

DLG5_2 PDZ, sequence (Q8TDM6 705-796 limits assumed): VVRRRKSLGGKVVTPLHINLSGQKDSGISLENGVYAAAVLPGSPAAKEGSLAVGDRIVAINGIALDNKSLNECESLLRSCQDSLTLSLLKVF
GRIP1_1 PDZ, sequence (Q9Y3R0 53-136 limits assumed): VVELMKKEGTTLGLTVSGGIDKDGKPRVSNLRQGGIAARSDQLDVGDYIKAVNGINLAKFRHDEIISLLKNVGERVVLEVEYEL
Inadl_3 PDZ, sequence (Q8NI35 365-453 limits assumed): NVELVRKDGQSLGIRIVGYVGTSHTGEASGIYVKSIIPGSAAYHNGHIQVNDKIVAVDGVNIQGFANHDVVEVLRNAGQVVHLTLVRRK
GRIP2_3 PDZ, sequence (Q9C0E4 248-332 limits assumed): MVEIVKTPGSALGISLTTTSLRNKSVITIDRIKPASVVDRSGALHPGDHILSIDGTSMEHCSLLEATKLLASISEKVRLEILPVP
PDZRN4_2 PDZ, sequence (Q6ZMN7 402-486 limits assumed): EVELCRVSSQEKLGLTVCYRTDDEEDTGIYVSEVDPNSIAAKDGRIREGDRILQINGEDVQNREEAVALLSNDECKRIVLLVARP
LIMK2 PDZ, sequence (P53671 152-239 limits assumed): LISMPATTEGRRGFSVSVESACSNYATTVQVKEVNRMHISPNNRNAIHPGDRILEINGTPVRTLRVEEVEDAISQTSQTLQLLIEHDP
MAGI2_6 PDZ, sequence (Q86UL8 1147-1229 limits assumed): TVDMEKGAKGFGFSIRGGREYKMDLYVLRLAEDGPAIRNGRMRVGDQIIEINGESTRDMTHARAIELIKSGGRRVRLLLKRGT
LIN7B PDZ, sequence (Q9HAP6 93-175 limits assumed): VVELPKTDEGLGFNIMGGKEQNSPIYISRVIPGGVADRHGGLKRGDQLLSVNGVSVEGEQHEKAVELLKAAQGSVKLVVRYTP
MAGIX PDZ, sequence (Q9H6Y5 125-209): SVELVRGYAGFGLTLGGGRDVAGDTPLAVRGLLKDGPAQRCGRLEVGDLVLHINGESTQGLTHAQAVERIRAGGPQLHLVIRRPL
MAGI1_5 PDZ, sequence (Q96QZ7 970-1066 limits assumed): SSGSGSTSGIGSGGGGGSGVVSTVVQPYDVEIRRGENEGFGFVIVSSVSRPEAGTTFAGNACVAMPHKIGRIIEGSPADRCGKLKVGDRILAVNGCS
GRIP2_4 PDZ, sequence (Q9C0E4 456-545 limits assumed): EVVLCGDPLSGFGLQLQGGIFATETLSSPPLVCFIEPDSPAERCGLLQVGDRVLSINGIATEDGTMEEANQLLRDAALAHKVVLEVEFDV
IL16_1 PDZ, sequence (Q14005 216-302 limits assumed): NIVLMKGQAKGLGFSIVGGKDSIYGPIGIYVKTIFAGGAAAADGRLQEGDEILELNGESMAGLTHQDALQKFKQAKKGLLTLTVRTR
Inadl_5 PDZ, sequence (Q8NI35 686-772 limits assumed): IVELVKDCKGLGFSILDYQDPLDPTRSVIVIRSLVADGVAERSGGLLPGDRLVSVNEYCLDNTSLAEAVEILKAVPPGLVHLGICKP
DVL2 PDZ, sequence (O14641 267-339 limits assumed): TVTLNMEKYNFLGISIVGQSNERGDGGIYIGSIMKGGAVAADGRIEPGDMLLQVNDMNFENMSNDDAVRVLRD
CARD14 PDZ, sequence (Q9BXL6 568-658 limits assumed): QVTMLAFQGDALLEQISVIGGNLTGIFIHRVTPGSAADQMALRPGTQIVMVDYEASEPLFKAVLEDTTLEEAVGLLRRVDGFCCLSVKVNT
DVL1 PDZ, sequence (O14640 251-323 limits assumed): as the sequence (O14641 267-339 limits assumed) above, with K8R, Y9H, N10H, E22D, M57V, D73E counted along it

Take RHTTSTETAV [HPV30-E6]: the Kd in experiment [1] was 64.6 µM; in experiment [2] it was 170 µM; in experiment [3], 83.2 µM; in experiment [4] it was 195 µM; in [5] it was 219 µM; in experiment [6] it was 141 µM. The Kd in experiment [7] is 245 µM; in [8] it was 25.7 µM; in experiment [9], 9.55 µM; in [10], 4.47 µM; in [11] it was 33.1 µM.

Consider RTRQRNETQV [HPV51-E6], for which the Kd in [12] is 398 µM; in experiment [13], 45.7 µM; in experiment [14], 23.4 µM; in experiment [15], 13.8 µM; in [16], 25.7 µM.
